Measurements as given in US20080227796A1, “7-Amino-6-Hetaryl-1,2,4-Triazolo[1,5-A]Pyrimidine Compounds and the Use Thereof for Controlling Pathogenic Fungi” (BASF Aktiengesellschaft, priority 2004, published 2008).

System: Puccinia recondita
Experiment: Protective activity against Puccinia recondita on wheat (brown rust of wheat)
Type: in vivo
Conditions: 250 ppm, protective: wheat seedlings sprayed the day before inoculation, visual rating after a further 7 days; untreated plants 90% infected
Description: The respective active compound was prepared as a stock solution with 25 mg of active compound which was made up to 10 ml with a mixture of acetone and/or dimethyl sulfoxide (DMSO) and the emulsifier Uniperol® EL (wetting agent having emulsifying and dispersing action based on ethoxylated alkylphenols) in a volume ratio solvent/emulsifier of 99 to 1. The solution was then made up to 100 ml with water. This stock solution was diluted to the active compound concentration stated below using the solvent/emulsifier/water mixture described.
Leaves of potted wheat seedlings of the cultivar “Kanzler” were sprayed to runoff point with an aqueous suspension having the active compound concentration stated below. The next day, the treated plants were inoculated with a spore suspension of brown rust of wheat (Puccinia recondita). The plants were then placed in a chamber with high atmospheric humidity (90 to 95%) at 20 to 22° C. for 24 hours. During this time, the spores germinated and the germ tubes penetrated into the leaf tissue. The next day, the test plants were returned to the greenhouse and cultivated at temperatures between 20 and 22° C. and 65 to 70% relative atmospheric humidity for a further 7 days. The extent of the rust fungal development on the leaves was then determined visually.

Cc1cc(-c2c(Cl)nc3ncnn3c2N[C@H](C)C(C)C)ccn1 [Example 59]
infection: no infection
